Reference: US10245261B2, “Substituted indol-5-ol derivatives and their therapeutic applications” (NantBioScience, Inc., priority 2013, dated 2019)

What was measured:
Experiment in all cases: KinaseProfiler kinase assay
Type in all cases: biochemical
JNK1α1(h) = JNK1α1(h) (Homo sapiens, UniProt P45983)
Outline: (§1)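 Each enzyme was assayed radiometrically: 40 min room-temperature reaction with [γ-33P]ATP and 10 mM Mg acetate, acid-stopped, filtered, scintillation-counted.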

[1] = target: PI3 Kinase (p110α(E542K)/p85α)(h) (Homo sapiens, UniProt P42336, E542K)
Outline: as §1

PASK(h) = PASK(h) (Homo sapiens, UniProt Q96RG2)
Outline: as §1

PDGFRα(D842V)(h) = PDGFRα(D842V)(h) (Homo sapiens, UniProt P16234, D842V)
Outline: as §1

MLK1(h) = MLK1(h) (Homo sapiens, UniProt P80192)
Outline: as §1

Met(D1246H)(h) = Met(D1246H)(h) (Homo sapiens, UniProt P08581, D1228H)
Outline: as §1

[2] = target: PI3 Kinase (p110β/p85β)(m) (Mus musculus, UniProt Q8BTI9)
Outline: as §1

IR(h) = IR(h) (Homo sapiens, UniProt P06213)
Outline: as §1

TAO1(h) = TAO1(h) (Homo sapiens, UniProt Q7L7X3)
Outline: as §1

PKG1β(h) = PKG1β(h) (Homo sapiens, UniProt Q13976)
Chain of PKG1β(h) (Q13976 1-686 isoform Q13976-2): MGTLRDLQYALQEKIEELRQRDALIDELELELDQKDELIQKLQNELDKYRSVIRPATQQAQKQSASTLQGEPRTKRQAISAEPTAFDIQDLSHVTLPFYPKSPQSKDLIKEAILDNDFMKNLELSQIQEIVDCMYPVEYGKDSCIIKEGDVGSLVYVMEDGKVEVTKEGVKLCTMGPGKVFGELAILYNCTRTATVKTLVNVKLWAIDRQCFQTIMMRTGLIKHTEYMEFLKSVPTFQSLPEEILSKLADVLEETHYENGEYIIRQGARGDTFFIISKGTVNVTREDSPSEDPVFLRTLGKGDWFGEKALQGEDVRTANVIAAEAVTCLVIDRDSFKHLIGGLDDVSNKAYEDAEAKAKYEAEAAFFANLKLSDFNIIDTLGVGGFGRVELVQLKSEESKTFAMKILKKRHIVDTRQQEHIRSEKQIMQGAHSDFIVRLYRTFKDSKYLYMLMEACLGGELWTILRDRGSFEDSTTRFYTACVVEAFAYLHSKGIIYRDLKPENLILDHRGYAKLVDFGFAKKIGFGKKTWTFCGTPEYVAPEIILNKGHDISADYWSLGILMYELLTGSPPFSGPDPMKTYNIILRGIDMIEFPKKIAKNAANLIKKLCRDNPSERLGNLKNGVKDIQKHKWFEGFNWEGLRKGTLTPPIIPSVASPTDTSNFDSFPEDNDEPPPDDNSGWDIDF
Outline: as §1

Ros(h) = Ros(h) (Homo sapiens, UniProt P08922)
Chain of Ros(h) (P08922 28-2347): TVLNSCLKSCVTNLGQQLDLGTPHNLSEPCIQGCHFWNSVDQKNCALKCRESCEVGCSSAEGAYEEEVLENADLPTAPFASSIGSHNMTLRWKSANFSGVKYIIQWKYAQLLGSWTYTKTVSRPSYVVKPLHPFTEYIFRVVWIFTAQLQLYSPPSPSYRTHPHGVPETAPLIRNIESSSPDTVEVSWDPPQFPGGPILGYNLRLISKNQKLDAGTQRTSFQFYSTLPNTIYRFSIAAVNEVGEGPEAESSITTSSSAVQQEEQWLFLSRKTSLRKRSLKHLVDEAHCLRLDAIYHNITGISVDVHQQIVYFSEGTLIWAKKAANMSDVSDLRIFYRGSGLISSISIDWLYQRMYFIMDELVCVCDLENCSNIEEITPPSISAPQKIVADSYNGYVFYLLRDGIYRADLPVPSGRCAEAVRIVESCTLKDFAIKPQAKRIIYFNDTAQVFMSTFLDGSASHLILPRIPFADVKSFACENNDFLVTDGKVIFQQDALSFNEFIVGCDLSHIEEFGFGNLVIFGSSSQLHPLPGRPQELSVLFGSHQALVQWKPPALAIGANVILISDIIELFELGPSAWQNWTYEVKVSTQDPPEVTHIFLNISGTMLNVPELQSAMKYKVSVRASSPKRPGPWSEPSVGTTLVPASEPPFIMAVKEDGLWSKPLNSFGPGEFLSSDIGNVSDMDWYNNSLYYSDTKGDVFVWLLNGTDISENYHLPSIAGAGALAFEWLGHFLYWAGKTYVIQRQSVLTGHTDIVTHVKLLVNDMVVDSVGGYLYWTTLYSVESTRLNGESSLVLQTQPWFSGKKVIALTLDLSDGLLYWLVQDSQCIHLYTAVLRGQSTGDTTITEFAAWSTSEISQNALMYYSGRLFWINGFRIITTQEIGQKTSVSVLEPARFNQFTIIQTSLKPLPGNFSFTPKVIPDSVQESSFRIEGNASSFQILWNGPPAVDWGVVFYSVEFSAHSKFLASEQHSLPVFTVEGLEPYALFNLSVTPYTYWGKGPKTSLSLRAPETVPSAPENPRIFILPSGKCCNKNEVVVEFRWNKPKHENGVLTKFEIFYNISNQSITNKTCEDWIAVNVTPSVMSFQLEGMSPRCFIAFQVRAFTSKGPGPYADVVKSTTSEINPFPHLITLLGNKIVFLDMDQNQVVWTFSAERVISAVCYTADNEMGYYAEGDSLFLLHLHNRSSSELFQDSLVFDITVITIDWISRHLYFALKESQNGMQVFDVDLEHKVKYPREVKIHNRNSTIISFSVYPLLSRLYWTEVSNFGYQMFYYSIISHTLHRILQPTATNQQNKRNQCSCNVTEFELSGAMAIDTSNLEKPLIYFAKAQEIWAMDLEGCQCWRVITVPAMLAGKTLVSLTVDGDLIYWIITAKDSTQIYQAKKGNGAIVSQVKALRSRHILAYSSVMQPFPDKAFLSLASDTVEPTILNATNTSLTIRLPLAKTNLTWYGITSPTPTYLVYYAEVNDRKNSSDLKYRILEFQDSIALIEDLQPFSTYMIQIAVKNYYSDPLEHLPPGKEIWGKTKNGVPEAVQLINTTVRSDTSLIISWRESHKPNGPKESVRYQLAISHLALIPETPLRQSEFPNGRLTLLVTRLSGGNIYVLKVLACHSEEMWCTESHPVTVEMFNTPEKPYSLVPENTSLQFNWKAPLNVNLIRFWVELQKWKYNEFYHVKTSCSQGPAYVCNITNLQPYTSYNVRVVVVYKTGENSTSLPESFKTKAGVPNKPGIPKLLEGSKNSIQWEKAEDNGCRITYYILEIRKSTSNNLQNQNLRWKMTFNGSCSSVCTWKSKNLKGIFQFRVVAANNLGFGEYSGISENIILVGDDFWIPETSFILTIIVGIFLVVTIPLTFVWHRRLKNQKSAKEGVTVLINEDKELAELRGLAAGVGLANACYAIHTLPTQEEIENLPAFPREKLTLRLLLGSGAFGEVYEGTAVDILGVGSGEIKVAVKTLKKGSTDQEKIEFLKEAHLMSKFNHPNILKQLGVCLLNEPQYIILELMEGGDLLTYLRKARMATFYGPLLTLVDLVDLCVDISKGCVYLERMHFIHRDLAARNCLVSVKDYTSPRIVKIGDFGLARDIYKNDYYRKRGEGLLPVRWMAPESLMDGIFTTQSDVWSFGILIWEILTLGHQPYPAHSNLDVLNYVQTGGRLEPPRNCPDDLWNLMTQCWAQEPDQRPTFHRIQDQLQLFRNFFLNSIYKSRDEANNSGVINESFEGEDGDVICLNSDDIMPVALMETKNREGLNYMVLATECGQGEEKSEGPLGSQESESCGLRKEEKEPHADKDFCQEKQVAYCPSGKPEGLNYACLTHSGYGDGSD
Outline: as §1

CLK3(h) = CLK3(h) (Homo sapiens, UniProt P49761)
Outline: as §1

CDK5/p35(h) = CDK5/p35(h) (Homo sapiens, UniProt Q00535)
Chain of CDK5/p35(h) (Q00535 whole entry): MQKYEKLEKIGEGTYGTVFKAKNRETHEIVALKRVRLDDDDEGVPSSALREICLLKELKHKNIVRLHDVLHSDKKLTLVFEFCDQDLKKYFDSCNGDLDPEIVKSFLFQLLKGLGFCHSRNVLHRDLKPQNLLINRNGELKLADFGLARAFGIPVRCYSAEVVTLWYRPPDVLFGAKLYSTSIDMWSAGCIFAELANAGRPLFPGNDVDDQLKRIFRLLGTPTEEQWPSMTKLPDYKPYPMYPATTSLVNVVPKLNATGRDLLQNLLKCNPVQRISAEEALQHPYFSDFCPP
Chain of CDK5/p35(h) (Q15078 whole entry partner): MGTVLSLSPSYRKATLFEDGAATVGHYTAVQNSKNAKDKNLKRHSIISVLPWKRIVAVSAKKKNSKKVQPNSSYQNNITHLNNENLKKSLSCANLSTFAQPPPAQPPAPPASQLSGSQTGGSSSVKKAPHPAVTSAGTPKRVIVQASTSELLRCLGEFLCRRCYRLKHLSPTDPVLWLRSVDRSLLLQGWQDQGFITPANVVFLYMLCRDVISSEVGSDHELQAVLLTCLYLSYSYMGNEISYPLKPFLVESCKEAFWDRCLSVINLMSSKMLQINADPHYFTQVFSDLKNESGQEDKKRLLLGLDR
Outline: as §1

CK2(h) = CK2(h) (Homo sapiens, UniProt P68400)
Outline: as §1

SAPK4(h) = SAPK4(h) (Homo sapiens, UniProt O15264)
Outline: as §1

ARK5(h) = ARK5(h) (Homo sapiens, UniProt O60285)
Outline: as §1

CSK(h) = CSK(h) (Homo sapiens, UniProt P41240)
Chain of CSK(h) (P41240 whole entry): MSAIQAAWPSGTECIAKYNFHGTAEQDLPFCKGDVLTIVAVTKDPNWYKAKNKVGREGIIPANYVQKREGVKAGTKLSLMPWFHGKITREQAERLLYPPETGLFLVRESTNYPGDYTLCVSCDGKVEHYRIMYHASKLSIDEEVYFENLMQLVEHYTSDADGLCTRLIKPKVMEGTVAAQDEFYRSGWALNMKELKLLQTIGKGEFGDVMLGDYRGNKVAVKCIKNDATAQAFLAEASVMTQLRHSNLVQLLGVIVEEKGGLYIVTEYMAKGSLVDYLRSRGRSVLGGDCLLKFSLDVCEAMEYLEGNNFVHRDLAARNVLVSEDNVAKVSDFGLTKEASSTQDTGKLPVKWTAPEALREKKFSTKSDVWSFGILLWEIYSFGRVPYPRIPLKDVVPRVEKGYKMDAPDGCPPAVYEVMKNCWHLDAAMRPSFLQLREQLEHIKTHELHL
Outline: as §1

PKCβII(h) = PKCβII(h) (Homo sapiens, UniProt P05771)
Outline: as §1

BrSK2(h) = BrSK2(h) (Homo sapiens, UniProt Q8IWQ3)
Outline: as §1

Pim-1(h) = Pim-1(h) (Homo sapiens, UniProt P11309)
Chain of Pim-1(h) (P11309 whole entry): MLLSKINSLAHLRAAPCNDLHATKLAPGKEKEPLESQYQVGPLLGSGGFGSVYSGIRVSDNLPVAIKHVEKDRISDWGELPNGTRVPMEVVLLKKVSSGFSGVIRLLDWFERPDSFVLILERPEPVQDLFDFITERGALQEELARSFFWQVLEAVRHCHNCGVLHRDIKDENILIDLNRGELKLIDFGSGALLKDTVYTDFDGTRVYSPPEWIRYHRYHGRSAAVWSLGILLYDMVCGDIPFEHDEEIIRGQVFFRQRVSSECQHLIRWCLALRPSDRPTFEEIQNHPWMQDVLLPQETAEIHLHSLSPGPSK
Outline: as §1

NEK6(h) = NEK6(h) (Homo sapiens, UniProt Q9HC98)
Outline: as §1

PKBγ(h) = PKBγ(h) (Homo sapiens, UniProt Q9Y243)
Outline: as §1

[3] = target: PI3 Kinase (p110α/p85α)(h) (Homo sapiens, UniProt P42336)
Outline: as §1

CDK3/cyclinE(h) = CDK3/cyclinE(h) (Homo sapiens, UniProt Q00526)
Outline: as §1

HIPK2(h) = HIPK2(h) (Homo sapiens, UniProt Q9H2X6)
Outline: as §1

TrkB(h) = TrkB(h) (Homo sapiens, UniProt Q16620)
Outline: as §1

CaMKI(h) = CaMKI(h) (Homo sapiens, UniProt Q14012)
Outline: as §1

PAK6(h) = PAK6(h) (Homo sapiens, UniProt Q9NQU5)
Chain of PAK6(h) (Q9NQU5 whole entry): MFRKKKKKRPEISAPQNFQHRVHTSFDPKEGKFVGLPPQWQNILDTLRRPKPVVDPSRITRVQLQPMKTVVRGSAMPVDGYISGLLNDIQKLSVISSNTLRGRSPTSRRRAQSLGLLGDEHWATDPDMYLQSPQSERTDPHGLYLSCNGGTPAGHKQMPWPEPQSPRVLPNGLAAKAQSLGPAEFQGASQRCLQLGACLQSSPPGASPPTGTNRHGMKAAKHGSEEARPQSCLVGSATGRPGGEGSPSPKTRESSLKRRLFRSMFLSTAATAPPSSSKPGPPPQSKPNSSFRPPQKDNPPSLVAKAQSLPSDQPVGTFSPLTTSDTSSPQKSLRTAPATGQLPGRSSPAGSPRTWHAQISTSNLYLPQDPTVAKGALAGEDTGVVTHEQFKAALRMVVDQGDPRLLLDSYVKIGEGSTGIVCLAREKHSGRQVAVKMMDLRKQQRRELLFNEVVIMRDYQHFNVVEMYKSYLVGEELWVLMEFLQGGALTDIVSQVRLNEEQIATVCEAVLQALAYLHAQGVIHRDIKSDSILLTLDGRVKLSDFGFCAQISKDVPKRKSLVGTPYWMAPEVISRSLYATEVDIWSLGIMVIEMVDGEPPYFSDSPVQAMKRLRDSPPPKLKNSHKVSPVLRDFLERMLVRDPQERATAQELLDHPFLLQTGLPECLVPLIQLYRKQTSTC
Outline: as §1

Plk3(h) = Plk3(h) (Homo sapiens, UniProt Q9H4B4)
Outline: as §1

DMPK(h) = DMPK(h) (Homo sapiens, UniProt Q09013)
Outline: as §1

GRK6(h) = GRK6(h) (Homo sapiens, UniProt P43250)
Outline: as §1

Row | Structure (SMILES) | inhibition at 0.1 µM (JNK1α1(h)) [%] | inhibition at 0.1 µM [1] [%] | inhibition at 0.1 µM (PASK(h)) [%] | inhibition at 0.1 µM (PDGFRα(D842V)(h)) [%] | inhibition at 0.1 µM (MLK1(h)) [%] | inhibition at 0.1 µM (Met(D1246H)(h)) [%] | inhibition at 0.1 µM [2] [%] | inhibition at 0.1 µM (IR(h)) [%] | inhibition at 0.1 µM (TAO1(h)) [%] | inhibition at 0.1 µM (PKG1β(h)) [%] | inhibition at 0.1 µM (Ros(h)) [%] | inhibition at 0.1 µM (CLK3(h)) [%] | inhibition at 0.1 µM (CDK5/p35(h)) [%] | inhibition at 0.1 µM (CK2(h)) [%] | inhibition at 0.1 µM (SAPK4(h)) [%] | inhibition at 0.1 µM (ARK5(h)) [%] | inhibition at 0.1 µM (CSK(h)) [%] | inhibition at 0.1 µM (PKCβII(h)) [%] | inhibition at 0.1 µM (BrSK2(h)) [%] | inhibition at 0.1 µM (Pim-1(h)) [%] | also measured
1 | Cc1cc2c(F)c(Oc3nc(Nc4cc(C5CC5)[nH]n4)cc(N4CCN(C)CC4)n3)ccc2[nH]1 [Compound 10] | -7 | -1 | 22 | 73 | 84 | 74 | -1 | 83 | 24 | -11 | 12 | 16 | 20 | 8 | -13 | 99 | 12 | 3 | 60 | -21 | inhibition at 0.1 µM (NEK6(h)): -11%; inhibition at 0.1 µM (PKBγ(h)): -10%; inhibition at 0.1 µM [3]: -1%; inhibition at 0.1 µM (CDK3/cyclinE(h)): 0%; inhibition at 0.1 µM (HIPK2(h)): -2%; inhibition at 0.1 µM (TrkB(h)): 103%; inhibition at 0.1 µM (CaMKI(h)): 2%; inhibition at 0.1 µM (PAK6(h)): 0%; inhibition at 0.1 µM (Plk3(h)): 1%; inhibition at 0.1 µM (DMPK(h)): -4%; inhibition at 0.1 µM (GRK6(h)): -5%
2 | Cc1cc2c(F)c(Oc3nc(Nc4cc(C5CC5)[nH]n4)cc(N4CCNCC4)n3)ccc2[nH]1 [Compound 11, N-(5-cyclopropyl-1H-pyrazol-3-yl)-2-((4-fluoro-2-methyl-1H-indol-5-yl)oxy)-6-(piperazin-1-yl)pyrimidin-4-amine] | 11 | 0 | -17 | 70 | 86 | 93 | -1 | 84 | 26 | -2 | 71 | -14 | 78 | 5 | 3 | 95 | 5 | -3 | 48 | -9 | inhibition at 0.1 µM (NEK6(h)): -11%; inhibition at 0.1 µM (PKBγ(h)): -18%; inhibition at 0.1 µM [3]: 5%; inhibition at 0.1 µM (CDK3/cyclinE(h)): 33%; inhibition at 0.1 µM (HIPK2(h)): 0%; inhibition at 0.1 µM (TrkB(h)): 100%; inhibition at 0.1 µM (CaMKI(h)): 7%; inhibition at 0.1 µM (PAK6(h)): 35%; inhibition at 0.1 µM (Plk3(h)): 1%; inhibition at 0.1 µM (DMPK(h)): -16%; inhibition at 0.1 µM (GRK6(h)): -14%
